Tests used:
[1] = target: T1, P. falciparum formate–nitrite transporter (PfFNT) (Plasmodium falciparum, UniProt O77389); assay: ITC with purified protein; cryo-EM structure of the complex at […] Å; type: binding
T1 construct: gene PF3D7_0316600; full-length PfFNT, N-terminal Strep-tag; residues 7 to 293 modelled (apo structure); homopentamer

[2] = target: T2, P. falciparum formate–nitrite transporter (PfFNT) (Plasmodium falciparum, UniProt O77389, T106A); assay: ITC with purified mutant protein; type: binding
T2 construct: gene PF3D7_0316600; PfFNT T106A mutant, purified as wild type (full-length, N-terminal Strep-tag)

[3] = target: the molecule itself; assay: cryo-EM structure; purified PfFNT in GDN detergent (25 mM Tris pH 8.0, 150 mM NaCl, 0.06% GDN), incubated with 250 mM sodium lactate before grid preparation (no lactate density: apo form); C5 symmetry; 2.3 Å

Molecule | Kd [1] | Kd [2] | stoichiometry N [3]
COc1ccc2c(c1)OC(O)(C(F)(F)C(F)(F)F)CC2=O (stereo not drawn) [MMV007839] | ~7.18 nM | 80.8 nM | 
Plasmodium falciparum formate–nitrite transporter (PfFNT) (natural protein, P. falciparum, UniProt O77389 1-309, looked up, PfFNT, lactate transporter of P. falciparum, UniProt O77389, encoded by pf3D7_0316600; full-length protein from codon-optimized cDNA; residues 7 to 293 of each protomer were assigned to the density map; Homopentamer in the cryo-EM structures; also called P. falciparum lactate transporter; wild-type PfFNT) MPPNNSKYVLDPVSIKSVCGGEESYIRCVEYGKKKAHYSNLNLLAKAILAGMFVGLCAHASGIAGGLFYYHKLREIVGASMSVFVYGFTFPIAFMCIICTGSDLFTGNTLAVTMALYEKKVKLLDYLRVMTISLFGNYVGAVSFAFFVSYLSGAFTNVHAVEKNHFFQFLNDIAEKKVHHTFVECVSLAVGCNIFVCLAVYFVLTLKDGAGYVFSVFFAVYAFAIAGYEHIIANIYTLNIALMVNTKITVYQAYIKNLLPTLLGNYIAGAIVLGLPLYFIYKEHYYNFERSKRDNNDAQMKSLSIELRN |  |  | 5
